Data reported in PubChem BioAssay (NCI).
Where “and” joins values, the source holds several entries; their conditions need not be identical. Equal entries are not always repeated.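 Test compounds were applied to cells in 96-well plates for 48 hours at 5 doses. Here, GI50 denotes the concentration required for 50% inhibition of growth. TGI is the concentration that stops growth completely.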

Tests used:
Experiment in all cases: NCI anticancer screen, dose series, 48 h
EKVX NSCLC = tested on: EKVX NSCLC
SK-MEL-28 melanoma = tested on: SK-MEL-28 melanoma
TK-10 renal = tested on: TK-10 renal
NCI-H226 lung = tested on: NCI-H226 lung
MOLT-4 leukemia = tested on: MOLT-4 leukemia
MDA-MB-231 breast = tested on: MDA-MB-231 breast
HCC-2998 colon = tested on: HCC-2998 colon
SN12C renal = tested on: SN12C renal
HOP-62 NSCLC = tested on: HOP-62 NSCLC
M14 melanoma = tested on: M14 melanoma

## CC[C@@]1(O)C(=O)OCc2c1cc1n(c2=O)Cc2cc3cc4c(cc3nc2-1)OCO4
EKVX NSCLC
  GI50: 0.415 µM
SK-MEL-28 melanoma
  GI50: 0.0971 µM
TK-10 renal
  GI50: 0.111 µM
  TGI: 2.79 µM and 17.3 µM
NCI-H226 lung
  TGI: 0.00616 µM and < 0.0387 µM
MOLT-4 leukemia
  TGI: 0.00137 µM
MDA-MB-231 breast
  TGI: > 100 µM
HCC-2998 colon
  TGI: 0.208 µM
SN12C renal
  TGI: < 0.0125 µM

## O=C1CCCCC1S(=O)(=O)c1ccccc1 (stereo unspecified)
EKVX NSCLC
  TGI: > 100 µM
SK-MEL-28 melanoma
  TGI: > 100 µM
TK-10 renal
  TGI: > 100 µM
NCI-H226 lung
  TGI: > 100 µM
MOLT-4 leukemia
  TGI: > 100 µM
HOP-62 NSCLC
  TGI: > 100 µM
HCC-2998 colon
  TGI: > 100 µM
M14 melanoma
  TGI: > 100 µM
SN12C renal
  TGI: > 100 µM

## COc1ccc(CCN2CC=Cn3c2nc2ccccc2c3=O)cc1
EKVX NSCLC
  GI50: 0.185 µM
  TGI: > 100 µM
SK-MEL-28 melanoma
  GI50: 0.694 µM
  TGI: > 100 µM
TK-10 renal
  GI50: 40 µM
  TGI: > 100 µM
NCI-H226 lung
  GI50: 0.101 µM
  TGI: > 85.8 µM
MOLT-4 leukemia
  GI50: 0.0523 µM
  TGI: > 100 µM
HOP-62 NSCLC
  GI50: 0.0346 µM
  TGI: > 64 µM
MDA-MB-231 breast
  GI50: 0.0558 µM
  TGI: > 100 µM
HCC-2998 colon
  GI50: 0.0332 µM
  TGI: 35.5 µM
SN12C renal
  GI50: 0.116 µM
  TGI: > 61.1 µM

## COc1cc(C(=O)c2c(-c3ccccc3)oc3c(OC)cccc23)cc(OC)c1OC
EKVX NSCLC
  GI50: 0.0674 µM
  TGI: > 100 µM
SK-MEL-28 melanoma
  GI50: 13.8 µM
  TGI: > 100 µM
TK-10 renal
  GI50: 10 µM
  TGI: > 62.2 µM
NCI-H226 lung
  GI50: 0.236 µM
MOLT-4 leukemia
  GI50: 0.345 µM
  TGI: > 100 µM
HOP-62 NSCLC
  GI50: 0.071 µM
  TGI: 47 µM
MDA-MB-231 breast
  GI50: 0.203 µM
  TGI: 2 µM
HCC-2998 colon
  GI50: 0.211 µM
  TGI: > 100 µM
SN12C renal
  GI50: 0.257 µM
  TGI: > 100 µM

## CSc1nnc(CCC(=O)Nc2c(C)cccc2C)o1
EKVX NSCLC
  TGI: > 100 µM
SK-MEL-28 melanoma
  TGI: > 100 µM
TK-10 renal
  TGI: > 100 µM
NCI-H226 lung
  TGI: > 100 µM
MOLT-4 leukemia
  TGI: > 100 µM
HOP-62 NSCLC
  TGI: > 100 µM
HCC-2998 colon
  TGI: > 100 µM
M14 melanoma
  TGI: > 100 µM
SN12C renal
  TGI: > 100 µM

## NNC(=O)C1CCC(=O)N1S(=O)(=O)c1ccccc1 (stereo unspecified)
EKVX NSCLC
  TGI: > 100 µM
SK-MEL-28 melanoma
  TGI: > 100 µM
TK-10 renal
  TGI: > 100 µM
NCI-H226 lung
  TGI: > 100 µM
MOLT-4 leukemia
  TGI: > 100 µM
HOP-62 NSCLC
  TGI: > 100 µM
HCC-2998 colon
  TGI: > 100 µM
M14 melanoma
  TGI: > 100 µM
SN12C renal
  TGI: > 100 µM

## COc1cc2c(cc1OC)[C@H](C)N1CCc3cc(OC)c(OC)cc3[C@@H]1C2
EKVX NSCLC
  TGI: > 100 µM
SK-MEL-28 melanoma
  TGI: > 100 µM
TK-10 renal
  TGI: > 100 µM
NCI-H226 lung
  TGI: > 100 µM
MOLT-4 leukemia
  TGI: > 100 µM
MDA-MB-231 breast
  TGI: > 100 µM
HCC-2998 colon
  TGI: > 100 µM
SN12C renal
  TGI: > 100 µM

## CCCCOC(=O)N1CCN(/[N+]([O-])=N/Oc2ccc([N+](=O)[O-])cc2[N+](=O)[O-])CC1
EKVX NSCLC
  GI50: 8.01 µM
  TGI: 23.5 µM
SK-MEL-28 melanoma
  GI50: 13.7 µM
  TGI: 35.7 µM
TK-10 renal
  GI50: 10 µM
  TGI: 21.8 µM
NCI-H226 lung
  GI50: 2.54 µM
  TGI: 5.95 µM
MOLT-4 leukemia
  GI50: > 100 µM
  TGI: > 100 µM
HOP-62 NSCLC
  GI50: 6.28 µM
  TGI: 23.2 µM
MDA-MB-231 breast
  GI50: 2.31 µM
  TGI: 5.63 µM
SN12C renal
  GI50: 11 µM
  TGI: 31.5 µM

## COc1cc(OC)c(C/C=C/c2ccccc2)cc1O
EKVX NSCLC
  TGI: 33.6 µM
SK-MEL-28 melanoma
  TGI: 30.4 µM
TK-10 renal
  TGI: 29.9 µM
NCI-H226 lung
  TGI: 33.8 µM
MOLT-4 leukemia
  TGI: 40.5 µM
MDA-MB-231 breast
  TGI: 31.7 µM
HCC-2998 colon
  TGI: 29.8 µM
M14 melanoma
  TGI: 38 µM
SN12C renal
  TGI: 32.7 µM

## C=C1C(O)C2C(=C(CC)C13CC3)C(=O)C(C)(C)C2OC (stereo unspecified)
EKVX NSCLC
  GI50: 82.6 µM
  TGI: > 100 µM
SK-MEL-28 melanoma
  GI50: > 100 µM
  TGI: > 100 µM
TK-10 renal
  GI50: > 100 µM
  TGI: > 100 µM
MOLT-4 leukemia
  GI50: 27.3 µM
  TGI: > 100 µM
HOP-62 NSCLC
  GI50: 90.8 µM
  TGI: > 100 µM
MDA-MB-231 breast
  GI50: 87.5 µM
  TGI: > 100 µM
M14 melanoma
  GI50: 59.4 µM
  TGI: > 100 µM
SN12C renal
  GI50: 74.2 µM
  TGI: > 100 µM

## Cc1nc(Nc2ccccc2)sc1C(=O)CC(=O)C(=O)Nc1c(C(C)C)cccc1C(C)C
EKVX NSCLC
  TGI: 89.5 µM
SK-MEL-28 melanoma
  TGI: > 100 µM
TK-10 renal
  TGI: > 100 µM
NCI-H226 lung
  TGI: > 100 µM
MOLT-4 leukemia
  TGI: > 100 µM
HOP-62 NSCLC
  TGI: > 100 µM
HCC-2998 colon
  TGI: > 100 µM
M14 melanoma
  TGI: > 100 µM
SN12C renal
  TGI: > 100 µM

## N#C/C(=C\c1ccsc1)c1nc2ccccc2o1
EKVX NSCLC
  GI50: 67.5 µM
  TGI: > 100 µM
SK-MEL-28 melanoma
  GI50: > 100 µM
  TGI: > 100 µM
TK-10 renal
  GI50: 21.1 µM
  TGI: 70.5 µM
NCI-H226 lung
  GI50: > 100 µM
  TGI: > 100 µM
MOLT-4 leukemia
  GI50: > 100 µM
  TGI: > 100 µM
MDA-MB-231 breast
  GI50: 22.4 µM
  TGI: > 100 µM
HCC-2998 colon
  GI50: > 100 µM
  TGI: > 100 µM
M14 melanoma
  GI50: > 100 µM
  TGI: > 100 µM
SN12C renal
  GI50: > 100 µM
  TGI: > 100 µM

## CCOc1cc2c(C(=O)CC)c(O)ccc2o1
EKVX NSCLC
  TGI: > 100 µM
SK-MEL-28 melanoma
  TGI: > 58.4 µM
TK-10 renal
  TGI: > 100 µM
NCI-H226 lung
  TGI: > 100 µM
MOLT-4 leukemia
  TGI: > 100 µM
HOP-62 NSCLC
  TGI: > 100 µM
HCC-2998 colon
  TGI: > 100 µM
M14 melanoma
  TGI: > 100 µM
SN12C renal
  TGI: > 100 µM
